From publication PMC11855827, “High-Throughput Screening of Five Compound Libraries for Anthelmintic Activity and Toxicity Leads to the Discovery of Two Flavonoid Compounds” (International Journal of Molecular Sciences, 2025)
Counter-ions that a name gives are not always drawn. Like-named read-outs stand apart in the source and are kept apart here.

Tested on: C. elegans
Assay: microbe, parasite or virus in culture
Conditions: Caenorhabditis elegans
[1] = 0 h, read-out: Percentage of motility inhibition 0 h, Table S2, C. elegans SS assay, 110 μM, 0 h, averages of 4 data points
[2] = 24 h, read-out: Percentage of motility inhibition 24 h, Table S2, C. elegans SS assay, 110 μM, 24 h, averages of 4 data points
[3] = 0 h, read-out: Percentage of motility inhibition 0 h
[4] = 24 h, read-out: Percentage of motility inhibition 24 h

| Compound | inhibition at 110 µM [1] | inhibition at 110 µM [2] | other results |
| --- | --- | --- | --- |
| OC[C@H]1NC[C@H](O)[C@@H](O)[C@@H]1O [1‐Deoxynojirimycin] | 0% | 1% | – |
| C=C1CCC[C@]2(C)CC[C@@H](C(C)(C)O)C[C@@H]12 [Beta-Eudesmol] | 0% | 6% | – |
| Cc1cc(/C=C/C#N)cc(C)c1Nc1ccnc(Nc2ccc(C#N)cc2)n1 [Rilpivirine] | 32% | 20% | – |
| Nc1ncnc2c1ccn2[C@@H]1O[C@H](CO)[C@@H](O)[C@H]1O [Tubercidin] | 5% | 0% | – |
| OB1OCc2cc(F)ccc21 [AN‐2690] | 0% | 12% | – |
| COC[C@@]12CC[C@H](OC)[C@]34C(C([C@H](OC)[C@H]13)[C@]1(OC(C)=O)[C@H]3[C@@H](OC(=O)c5ccccc5)[C@](O)(C[C@H]34)[C@@H](OC)[C@@H]1O)N(C)C2 [Hypaconitine] | 0% | 6% | – |
| C=C1C(=O)[C@@]23[C@H](O)C[C@@H]4C(C)(C)C(=O)CC[C@@]4(C)[C@@H]2CC[C@@H]1[C@H]3O [Glaucocalyxin A] | 0% | 7% | – |
| Cc1oc(=O)oc1CN1CCN(c2cc3c(cc2F)c(=O)c(C(=O)O)c2n3C(C)S2)CC1 (centres unmarked) [Prulifloxacin] | 27% | 0% | – |
| Oc1ccc(Cl)cc1Cc1cc(Cl)ccc1O [Dichlorophen] | 15% | 0% | – |
| C[C@@H]1O[C@@H](OC[C@H]2O[C@@H](Oc3cc(O)c4c(c3)O[C@H](c3ccc(O)cc3)CC4=O)[C@H](O)[C@@H](O)[C@@H]2O)[C@H](O)[C@H](O)[C@H]1O [Narirutin] | 39% | 19% | – |
| C=C1C[C@@]23CC[C@H]4[C@@](C)(CCC[C@@]4(C)C(=O)O)[C@@H]2CC[C@]1(O)C3 [Steviol] | 13% | 34% | – |
| CC(CC(=O)C[C@@H](C)[C@H]1CC(=O)[C@@]2(C)C3=C(C(=O)C[C@]12C)[C@@]1(C)CCC(=O)C(C)(C)[C@@H]1C[C@@H]3O)C(=O)O (some centres unmarked) [Ganoderic acid D] | 0% | 21% | – |
| C/C1=C\C[C@]2(C(C)C)CC[C@@](C)(O2)[C@@H](O)CC/C(C)=C/CC1 [Incensole] | 2% | 29% | – |
| COc1cc([C@@H]2[C@H]3CO[C@@]4(O)C(=O)[C@@H]2C=C([C@H]2Oc5cc(O)cc(O)c5C(=O)[C@@H]2O)[C@@H]34)ccc1O [Silydianin] | 17% | 4% | – |
| Cc1cn([C@H]2C[C@H](N=[N+]=[N-])[C@@H](CO)O2)c(=O)[nH]c1=O [Zidovudine] | 7% | 4% | – |
| O=C(O)C1=CCCNC1 [Guvacine hydrochloride] | 0% | 0% | – |
| CC(C)=CCC[C@](C)(O[C@@H]1O[C@H](CO[C@@H]2OC[C@H](O)[C@H](O)[C@H]2O)[C@@H](O)[C@H](O)[C@H]1O)[C@H]1CC[C@]2(C)[C@@H]1[C@H](O)C[C@@H]1[C@@]3(C)CC[C@H](O[C@@H]4O[C@H](CO)[C@@H](O)[C@H](O)[C@H]4O[C@@H]4O[C@H](CO)[C@@H](O)[C@H](O)[C@H]4O)C(C)(C)[C@@H]3CC[C@]12C [Ginsenoside Rb2] | 7% | 0% | – |
| COc1cc(O)c2c(=O)c(O)c(-c3ccc(O)c(O)c3)oc2c1 [Rhamnetin] | 29% | 12% | – |
| NC(=O)c1ncn([C@@H]2O[C@H](CO)[C@@H](O)[C@H]2O)c1O [Mizoribine] | 28% | 29% | – |
| C/C=C(\C)C(=O)N[C@@H](c1ccccc1)[C@@H](O)C(=O)O[C@H]1C[C@@]2(O)[C@@H](OC(=O)c3ccccc3)[C@@H]3[C@]4(OC(C)=O)CO[C@@H]4C[C@H](O)[C@@]3(C)C(=O)[C@H](OC(C)=O)C(=C1C)C2(C)C [Cephalomannine] | 31% | 34% | – |
| CN/C(=N/CC1CCOC1)N[N+](=O)[O-] (centres unmarked) [Dinotefuran] | – | – | inhibition at 110 µM [3]: 7%; inhibition at 110 µM [4]: 0% |
| CC(C)NCC(O)COc1cccc2ccccc12 (centres unmarked) [Propranolol, reference compound] | 0% | 0% | inhibition at 110 µM (0 h, read-out: Inhibition (%) 110 μM (0 h), C. elegans L4 motility, 110 μM, 0 h, mean ± SD of four experiments): 84%; inhibition at 110 µM (24 h, read-out: Inhibition (%) 110 μM (24 h), C. elegans L4 motility, 110 μM, 24 h, mean ± SD of four experiments): 35% |
| C[C@@]12C[C@@]3(O)O[C@@H](O1)[C@]1(COC(=O)c4ccccc4)[C@H]3C[C@@]12O[C@@H]1O[C@H](CO)[C@@H](O)[C@H](O)[C@H]1O [Paeoniflorin] | 4% | 10% | – |
| COP(=S)(OC)Oc1c(Cl)cc(C)cc1Cl [Tolclofos‐methyl] | 35% | 20% | – |
| O=c1[nH]c(=O)n([C@H]2C[C@H](O)[C@@H](CO)O2)cc1/C=C/Br [Brivudine] | – | – | inhibition at 110 µM [3]: 6%; inhibition at 110 µM [4]: 14% |
| CCCCN(CCCC)CC(O)c1cc(Cl)cc2c1-c1ccc(Cl)cc1/C2=C/c1ccc(Cl)cc1 (centres unmarked) [Lumefantrine] | 0% | 0% | – |
| O=c1c(O)c(-c2cc(O)c(O)c(O)c2)oc2cc(O)cc(O)c12 [Myricetin] | – | – | inhibition at 110 µM [3]: 30%; inhibition at 110 µM [4]: 7% |

| Compound | inhibition at 110 µM [1] | inhibition at 110 µM [2] | other results |
| --- | --- | --- | --- |
| C[C@H]1O[C@@H](O[C@H]2[C@@H](O)C[C@H](O[C@H]3[C@@H](O)C[C@H](O[C@H]4CC[C@@]5(C)[C@H](CC[C@@H]6[C@@H]5CC[C@]5(C)[C@@H](C7=CC(=O)OC7)CC[C@]65O)C4)O[C@@H]3C)O[C@@H]2C)C[C@H](O)[C@@H]1O [Digitoxin] | 0% | 3% | – |
| CC1(C)C=Cc2c(ccc3c2OC[C@@H](c2ccc(O)cc2O)C3)O1 [Glabridin] | 26% | 6% | – |
| O=C(Nc1ccccc1)c1ccccc1O [Salicylanilide] | 43% | 21% | – |
| COC(=O)C1=CO[C@@H](O[C@@H]2O[C@H](CO)[C@@H](O)[C@H](O)[C@H]2O)[C@@H]2[C@@H](C)[C@@H](O)C[C@H]12 [Loganin] | 11% | 15% | – |
| COc1cc(O)c(C(=O)/C=C/c2ccc(O)cc2)c(OC)c1 [Flavokawain C] | 18% | 20% | – |
| COc1ccc(-c2cc(=O)c3c(O)cc(O)cc3o2)cc1 [Acacetin] | 9% | 2% | – |
| COc1ccc(Cc2cnc(N)nc2N)cc1OC [Diaveridine] | 17% | 32% | – |
| COc1ncnc(NS(=O)(=O)c2ccc(N)cc2)c1OC [Sulfadoxine] | 18% | 5% | – |
| O=C(O)c1cccnc1C(=O)O [Quinolinic acid] | 0% | 0% | – |
| CC(CC(=O)C[C@@H](C)[C@H]1CC(=O)[C@@]2(C)C3=C(C(=O)[C@@H](O)[C@]12C)[C@@]1(C)CC[C@H](O)C(C)(C)[C@@H]1C[C@@H]3O)C(=O)O (some centres unmarked) [Ganoderic acid G] | 0% | 3% | – |
| O=c1cc(-c2ccccc2)oc2ccccc12 [Flavone] | 0% | 5% | – |
| CC1=CC(=O)c2ccccc2C1=O [Menadione] | 0% | 0% | – |
| C[C@@]12C[C@@]3(O)O[C@@H](O1)[C@]1(COC(=O)c4ccccc4)[C@H]3C[C@@]12O[C@@H]1O[C@H](COC(=O)c2ccccc2)[C@@H](O)[C@H](O)[C@H]1O [Benzoylpaeoniflorin] | 10% | 0% | – |
| O=c1c(O)cc([C@H]2Oc3cc(O)cc(O)c3C[C@H]2O)cc2c([C@H]3Oc4cc(O)cc(O)c4C[C@H]3O)cc(O)c(O)c12 [Theaflavin] | 11% | 5% | – |
| Nc1nc2c(ncn2CCC(CO)CO)c(=O)[nH]1 [Penciclovir] | 22% | 1% | – |
| Cc1coc2c1C(=O)C(=O)c1c-2ccc2c(C)cccc12 [Tanshinone I] | 0% | 3% | – |
| COc1ccccc1OCC(O)CO (centres unmarked) [Guaifenesin] | 46% | 27% | – |
| COc1cc(OC)cc(OC)c1 [1,3,5‐Trimethoxybenzene] | 1% | 25% | – |
| O[C@H]1[C@H](O)[C@@H](O)[C@H](O)[C@@H](O)[C@H]1O [i-Inositol] | 0% | 0% | – |
| Cc1cccc(C)c1OCC(=O)N[C@@H](Cc1ccccc1)[C@@H](O)C[C@H](Cc1ccccc1)NC(=O)[C@H](C(C)C)N1CCCNC1=O [Lopinavir] | 17% | 14% | – |
| CCN1C[C@]2(COC)CC[C@H](O)[C@]34C1[C@@](O)([C@@H](OC)[C@H]23)[C@@]1(O)C[C@H](OC)[C@H]2C[C@@H]4[C@@H]1[C@H]2OC [Delsoline] | 5% | 0% | – |
| Cc1[nH]ccc2c1[nH]c1cc(=O)ccc12 [Harmol] | 0% | 0% | – |
| CC(=O)NC[C@H]1CN(c2ccc(N3CCSCC3)c(F)c2)C(=O)O1 [Sutezolid] | 16% | 4% | – |
| CN(C)Cc1c[nH]c2ccccc12 [Gramine] | 0% | 0% | – |
| CC1=C[C@]2(O)O[C@@]3(CC2=C(C)C)[C@@H](C)CC[C@@H]13 [Curcumenol] | 0% | 38% | – |
| NNC(=O)c1ccncc1 [Isoniazid] | 26% | 27% | – |
| C[C@H](C[C@H](O)[C@@H](O)C(C)(C)O)C1=C2C[C@H](O)[C@H]3[C@@]4(C)CCC(=O)C(C)(C)[C@@H]4CC[C@]3(C)[C@@]2(C)CC1 [Alisol A] | 3% | 2% | – |
